The text below walks through data of patent US11279687B2, “Compounds and compositions for the inhibition of NAMPT” (Valo Health, Inc., priority 2010, dated 2022).

Like-named read-outs stand apart in the source and are kept apart here.

What is called IC50 is the concentration that inhibits the measured activity by half.

In one test the target is NAMPT (Homo sapiens (Human), UniProt P43490). As to the kind of experiment: NAMPT biochemical inhibition assay (NMN quantified by mass spectrometry). The note with it: NAMPT biochemical inhibition; read-out: Biochem IC50.
In the next test the test system is A2780 cells. Nature of the test: In-vitro cell proliferation assay (SRB), A2780 cells.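 Note: viable cell number read as SRB absorbance, background from media-only wells subtracted, IC50 interpolated from percent inhibition at two bracketing compound concentrations.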 In kind it is cell-based. The note with it: read-out: A2780 IC50.
The mark [1] stands for this setting: Homo sapiens, A2780, 72 h, A2780 cells, 72 hours, SRB.

Chain of NAMPT (P43490 whole entry): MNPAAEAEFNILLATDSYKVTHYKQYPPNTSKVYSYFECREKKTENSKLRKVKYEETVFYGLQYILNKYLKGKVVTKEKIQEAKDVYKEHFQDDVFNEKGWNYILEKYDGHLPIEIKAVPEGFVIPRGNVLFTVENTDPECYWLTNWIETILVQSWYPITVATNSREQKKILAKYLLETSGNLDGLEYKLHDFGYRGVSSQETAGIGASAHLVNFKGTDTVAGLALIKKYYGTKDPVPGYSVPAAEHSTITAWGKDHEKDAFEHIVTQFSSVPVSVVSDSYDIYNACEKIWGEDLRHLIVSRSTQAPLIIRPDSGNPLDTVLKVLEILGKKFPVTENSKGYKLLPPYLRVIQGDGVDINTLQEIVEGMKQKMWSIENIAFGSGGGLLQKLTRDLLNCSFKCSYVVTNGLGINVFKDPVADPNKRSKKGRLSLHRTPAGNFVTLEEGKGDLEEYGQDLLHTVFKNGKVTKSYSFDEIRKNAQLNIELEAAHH

With `Cc1ccc(NS(=O)(=O)c2ccc(NC(=O)NCc3cccnc3)cc2)cc1C(F)(F)F` [3-(4-{[4-methyl-3-(trifluoromethyl)phenyl]sulfamoyl[phenyl)-1-(pyridin-3-ylmethyl)urea], the IC50 on NAMPT was found to be 0.002 µM; in the test on A2780 cells (A2780 cells, 72 hours, SRB), 0.179 µM.
For `O=C(NCc1cccnc1)c1ccc(S(=O)(=O)c2ccccc2)cc1` [4-(benzenesulfonyl)-N-(pyridin-3-ylmethyl)benzamide], the IC50 on NAMPT worked out at 0.0805 µM; in the test with A2780 cells (setting [1]), 0.216 µM.
For `CC(C)N(Cc1ccccc1)S(=O)(=O)c1ccc(NC(=O)NCc2cccnc2)cc1` [3-{4-[benzyl(propan-2-yl)sulfamoyl]phenyl}-1-(pyridin-3-ylmethyl)urea] the same measures were 0.002 µM and 0.026 µM.
Regarding `O=C(NCc1cccnc1)Nc1ccc(S(=O)(=O)N2CCN(CC(=O)N3CCOCC3)CC2)cc1` [1-(4-{4-[2-(morpholin-4-yl)-2-oxoethyl]piperazine-1-sulfonyl}phenyl)-3-(pyridin-3-ylmethyl)urea], the IC50 at NAMPT was found to be 0.004 µM; in the test on A2780 cells (setting [1]) it was 0.135 µM.
The like results for `O=C(NCc1cccnc1)Nc1ccc(S(=O)(=O)c2ccc(Cl)cc2F)cc1` [3-{4-[(4-chloro-2-fluorobenzene)sulfonyl]phenyl}-1-(pyridin-3-ylmethyl)urea] were, in that order, 0.002 µM and 0.415 µM.
The like results for `O=C(NCc1ccn2ccnc2c1)c1ccc(S(=O)(=O)c2ccccc2)cc1` [4-(benzenesulfonyl)-N-{imidazo[1,2-a]pyridin-7-ylmethyl}benzamide] were, in that order, 0.0308 µM and 0.0259 µM.
With `Cc1ncccc1S(=O)(=O)c1ccc(NC(=O)NCc2cccnc2)cc1` [3-[4-(2-methylpyridine-3-sulfonyl)phenyl]-1-(pyridin-3-ylmethyl)urea], the half-inhibitory concentration (IC50) on NAMPT is 0.0072 µM; with A2780 cells (setting [1]), 0.1 to 1 µM.
For `O=C(NCc1cccnc1)Nc1ccc(S(=O)(=O)N2CCC(O)(c3cccc(Cl)c3)CC2)cc1` [3-{4-[4-(3-chlorophenyl)-4-hydroxypiperidine-1-sulfonyl]phenyl}-1-(pyridin-3-ylmethyl)urea] the same measures were 0.0052 µM and 0.956 µM.
The like results for `Cc1ccc(S(=O)(=O)c2ccc(NC(=O)NCc3cccnc3)cc2)cc1F` [3-{4-[(3-fluoro-4-methylbenzene)sulfonyl]phenyl}-1-(pyridin-3-ylmethyl)urea] were, in that order, 0.001 µM and 0.206 µM.
For `CCOc1ccccc1S(=O)(=O)c1ccc(NC(=O)NCc2cccnc2)cc1` [3-{4-[(2-ethoxybenzene)sulfonyl]phenyl}-1-(pyridin-3-ylmethyl)urea] the same measures were 0.002 µM and 0.0004 µM.
With `O=C(NCc1cccnc1)Nc1ccc(S(=O)(=O)c2cccc(F)c2)cc1` [3-{4-[(3-fluorobenzene)sulfonyl]phenyl}-1-(pyridin-3-ylmethyl)urea], the IC50 stood at 0.001 µM at NAMPT and 0.238 µM in the test with A2780 cells (setting [1]).
As for `O=C(NCc1cccnc1)Nc1ccc(S(=O)(=O)N2CCC(N3C(=O)Cc4ccccc43)CC2)cc1` [1-{4-[4-(2-oxo-2,3-dihydro-1H-indol-1-yl)piperidine-1-sulfonyl]phenyl}-3-(pyridin-3-ylmethyl)urea], the concentration for half-maximal inhibition (IC50) on NAMPT was 0.003 µM; in the test with A2780 cells (Homo sapiens, A2780, 72 h), 0.058 µM.
Take `CC(C)C(=O)NC1CCN(S(=O)(=O)c2ccc(NC(=O)NCc3cccnc3)cc2)CC1` [2-methyl-N-{1-[(4-{[(pyridin-3-ylmethyl)carbamoyl]amino}benzene)sulfonyl]piperidin-4-yl}propanamide]: the IC50 at NAMPT was found to be 0.005 µM; in the test with A2780 cells (A2780 cells, 72 hours, SRB) it was 0.123 µM.
Turning to `O=C(NCc1cccnc1)Nc1ccc(S(=O)(=O)c2ccc(Cl)c(C(F)(F)F)c2)cc1` [3-(4-{[4-chloro-3-(trifluoromethyl)benzene]sulfonyl}phenyl)-1-(pyridin-3-ylmethyl)urea], the half-maximal inhibitory concentration (IC50) at NAMPT turned out to be 0.005 µM; with A2780 cells (setting [1]), 0.167 µM.
`C[C@H](O)COc1ccccc1NS(=O)(=O)c1ccc(NC(=O)NCc2cccnc2)cc1` [3-[4-({2-[(2S)-2-hydroxypropoxy]phenyl}sulfamoyl)phenyl]-1-(pyridin-3-ylmethyl)urea]: the IC50 on NAMPT turned out to be 0.012 µM; in the test on A2780 cells (setting [1]), 0.088 µM.
For `O=C(NCc1cncnc1)Nc1ccc(S(=O)(=O)N2CCCCC2)cc1` [3-[4-(piperidine-1-sulfonyl)phenyl]-1-(pyrimidin-5-ylmethyl)urea] the same measures were 1.14 µM and over 30 µM.
The like results for `COc1cccc(C2(N3CCN(S(=O)(=O)c4ccc(NC(=O)NCc5cccnc5)cc4)CC3)CCC(C)CC2)c1` (stereo not drawn) [3-(4-{4-[1-(3-methoxyphenyl)-4-methylcyclohexyl]piperazine-1-sulfonyl}phenyl)-1-(pyridin-3-ylmethyl)urea] were, in that order, 0.004 µM and 0.005 µM.
The like results for `Cc1cc(F)cc(S(=O)(=O)c2ccc(NC(=O)NCc3cccnc3)cc2)c1` [3-{4-[(3-fluoro-5-methylbenzene)sulfonyl]phenyl}-1-(pyridin-3-ylmethyl)urea] were, in that order, 0.0017 µM and 0.0993 µM.
`O=C(NCc1ccc[n+]([O-])c1)Nc1ccc([S+]([O-])c2ccc(Cl)cc2)cc1` (stereo not drawn) [3-{[({4-[(4-chlorobenzene)sulfinyl]phenyl}carbamoyl)amino]methyl}pyridin-1-ium-1-olate]: the IC50 on NAMPT was 0.444 µM; in the test with A2780 cells (A2780 cells, 72 hours, SRB) it was 20.6 µM.
`O=C(NCc1cccnc1)Nc1ccc(S(=O)(=O)c2cccc(C(=O)NCCO)c2)cc1` [N-(2-hydroxyethyl)-3-[(4-{[(pyridin-3-ylmethyl)carbamoyl]amino[benzene)sulfonyl]benzamide]: the IC50 on NAMPT is 0.0078 µM; in the test on A2780 cells (A2780 cells, 72 hours, SRB), 0.1 to 1 µM.
Take `COc1ccc(OC)c(S(=O)(=O)c2ccc(NC(=O)NCc3cccnc3)cc2)c1` [3-{4-[(2,5-dimethoxybenzene)sulfonyl]phenyl}-1-(pyridin-3-ylmethyl)urea]: the IC50 on NAMPT was found to be 0.001 µM; with A2780 cells (setting [1]), 0.007 µM.
The like results for `Cc1ccc(N2CCN(S(=O)(=O)c3ccc(NC(=O)NCc4cccnc4)cc3)C[C@@H]2C)cc1` [3-{4-[(3S)-3-methyl-4-(4-methylphenyl)piperazine-1-sulfonyl]phenyl}-1-(pyridin-3-ylmethyl)urea] were, in that order, 0.004 µM and 0.095 µM.
The like results for `O=C(NCc1cccnc1)Nc1ccc(S(=O)(=O)Nc2ccccc2OC(F)(F)F)cc1` [1-(pyridin-3-ylmethyl)-3-(4-{[2-(trifluoromethoxy)phenyl]sulfamoyl}phenyl)urea] were, in that order, 0.0012 µM and 0.007 µM.
The like results for `O=C(NCc1cccnc1)Nc1ccc(S(=O)(=O)c2cccc(-n3cccn3)c2)cc1` [1-(4-{[3-(1H-pyrazol-1-yl)benzene]sulfonyl}phenyl)-3-(pyridin-3-ylmethyl)urea] were, in that order, 0.0022 µM and 0.098 µM.
Regarding `O=C(NCc1cccnc1)Nc1ccc(S(=O)(=O)c2ccccc2Br)cc1` [3-{4-[(2-bromobenzene)sulfonyl]phenyl}-1-(pyridin-3-ylmethyl)urea], the IC50 came to 0.006 µM on NAMPT and 0.25 µM with A2780 cells (setting [1]).
For the compound `O=C(NCc1cccnc1)Nc1ccc(S(=O)(=O)c2ccccc2Cl)cc1` [3-{4-[(2-chlorobenzene)sulfonyl]phenyl}-1-(pyridin-3-ylmethyl)urea], the figures for the IC50 on NAMPT and with A2780 cells (setting [1]) were 0.005 µM and 0.475 µM, respectively.
The like results for `O=C(Nc1cccnc1)c1ccc(S(=O)(=O)c2ccccc2)cc1` [4-(benzenesulfonyl)-N-(pyridin-3-yl)benzamide] were, in that order, 1.89 µM and 2.73 µM.
The like results for `COc1cccc(S(=O)(=O)c2ccc(C(=O)NCc3ccc4nccn4c3)cc2)c1` [N-{imidazo[1,2-a]pyridin-6-ylmethyl}-4-[(3-methoxybenzene)sulfonyl]benzamide] were, in that order, 0.0192 µM and 0.00354 µM.
The like results for `O=C(NCc1ccc2nccn2c1)c1ccc(S(=O)(=O)Nc2cccc(Cl)c2)cc1` [4-[(3-chlorophenyl)sulfamoyl]-N-{imidazo[1,2-a]pyridin-6-ylmethyl}benzamide] were, in that order, 0.138 µM and 0.00712 µM.
Regarding `CCS(=O)(=O)Nc1cccc(S(=O)(=O)c2ccc(NC(=O)NCc3cccnc3)cc2)c1` [3-{4-[(3-ethanesulfonamidobenzene)sulfonyl]phenyl}-1-(pyridin-3-ylmethyl)urea], the IC50 on NAMPT was found to be 0.0011 µM; in the test with A2780 cells (setting [1]), 0.0695 µM.
For `Nc1ccc(CNC(=O)Nc2ccc(S(=O)(=O)N3CCCCC3)cc2)cn1` [3-[(6-aminopyridin-3-yl)methyl]-1-[4-(piperidine-1-sulfonyl)phenyl]urea] the same measures were 0.0085 µM and 0.0714 µM.
The like results for `O=C(NCc1cccnc1)Nc1ccc(S(=O)(=O)N2CCC(C(=O)c3ccc(F)cc3)CC2)cc1` [3-(4-{4-[(4-fluorophenyl)carbonyl]piperidine-1-sulfonyl}phenyl)-1-(pyridin-3-ylmethyl)urea] were, in that order, 0.01 µM and 0.206 µM.
For `O=C(NCc1cccnc1)Nc1ccc(S(=O)(=O)c2ccc(F)c(F)c2)cc1` [3-{4-[(3,4-difluorobenzene)sulfonyl]phenyl}-1-(pyridin-3-ylmethyl)urea] the same measures were 0.003 µM and 0.214 µM.
Turning to `CC(C)Oc1cccc(S(=O)(=O)c2ccc(NC(=O)NCc3cccnc3)cc2)c1` [3-(4-{[3-(propan-2-yloxy)benzene]sulfonyl}phenyl)-1-(pyridin-3-ylmethyl)urea], the IC50 was 0.004 µM on NAMPT and 0.079 µM in the test on A2780 cells (setting [1]).
For `O=C(NCc1cccnc1)Nc1ccc(S(=O)(=O)NCc2ccccc2Cl)cc1` [3-(4-{[(2-chlorophenyl)methyl]sulfamoyl}phenyl)-1-(pyridin-3-ylmethyl)urea] the same measures were 0.003 µM and 0.201 µM.
As for `O=C(NCc1cccnc1)Nc1ccc(S(=O)(=O)Nc2ccc(Cl)cc2OC(F)(F)F)cc1` [3-(4-{[4-chloro-2-(trifluoromethoxy)phenyl]sulfamoyl[phenyl)-1-(pyridin-3-ylmethyl)urea], the IC50 on NAMPT turned out to be 0.006 µM; in the test with A2780 cells (A2780 cells, 72 hours, SRB) it was 0.113 µM.
